Data published in patent publication US5296487A, “Quinazoline derivatives and their preparation” (priority 1990, dated 1994).
≈ marks a conversion by molar mass, not a printed value. Counter-ions that a name gives are not always drawn.

Columns and labels:
[1] = system: reserpine-induced DOPA accumulation; assay: Inhibition of reserpine-induced DOPA accumulation; type: in vivo, Male SD rats; settings: dose 3.2 mg/kg, orally, 2 hours before sacrifice; striatum
Method: Test 2 [Inhibition of reserpine-induced DOPA accumulation]
Male SD rats weighing 300-400 g were used in this test. Rats were pretreated with reserpine (1 mg/kg, S.C.) 17-19 hours before sacrifice and then fasted. Test Compound was given orally to the rats 2 hours before sacrifice. [m-Hydroxybenzylhydrazine (100 mg/kg, i.p.) was given 30 minutes before sacrifice.] Each rat was exposed to microwaves using a head-focus microwave applicator for 1.5 seconds. The whole brain was removed and further separated into the striatum.
DOPA was determined as follows; the striatum was homogenized in 9 volumes of 0.1N perchloric acid solution (0.4% EDTA·2Na). The homogenate was centrifuged at 10,000 rpm for 1 minutes. The supernatant was applied to high performance liquid chromatography.

α1-adrenoceptor = α1-adrenoceptor binding assay; settings: 3H-Prazosin binding, rat whole brain membranes
Method: Test 5 [α1-adrenoceptor binding assay]
Male Wistar rats (200-250 g) were killed by decapitation and the brain was placed in ice-cold buffer (0.25 M sucrose, 5 mM Tris/HCl, 1 mM MgCl2, pH 7.5).
Whole brain was homogenized in 10-20 volume (w/v) of ice-cold buffer for 20 strokes using a motor-drived Teflon-glass homogenizer. The homogenate was centrifuged at 1,000 g for 10 min at 4° C., and the pellet was discarded. The supernatant was centrifuged at 30,000 g for 20 min at 4° C. The pellet obtained was washed by
resuspension in 20 ml ice-cold 50 mM Tris/HCl, 10 mM MgCl2 buffer (pH 7.5) and recentrifuged at 30,000 g for 20 min at 4° C. The final pellet was resuspended in 15 volumes of original wet weight of 50 mM Tris/HCl, 10 mM MgCl2 buffer (pH 7.5) for use in the assays.
For ^3 H-Prazosin binding to rat brain, membrane suspensions prepared from rat whole brain (0.3-0.4 mg protein) were incubated by constant shaking for 20 min at 30° C. with ^3 H-Prazosin ([…]) and increasing concentrations of test compounds (10^-6 -10^-9 M) in a total volume of 550 μl of 50 mM Tris/HCl, 10 mM MgCl2 buffer containing 0.1 mg/ml bovine serum albumin (pH 7.5). […] These filter disks were counted by liquid scintillation counter with an efficacy of 40%. […] The concentration of the test compound inhibiting 50% of the specific binding of ^3 H-Prazosin was calculated by log profit analysis of the binding data.

[2] = Hypotensive effect on spontaneous hypertensive rats; type: in vivo, male spontaneous hypertensive rats; settings: dose 0.32 mg/kg, orally
Method: Test 3 [Hypotensive effect on spontaneous hypertensive rats] 15 to 25-Week-old male spontaneous hypertensive rats with mean arterial blood pressure of about 160-200 mmHg, weighing 300-350 g, were used. The animals were cannulated in the left femoral artery and the mean blood pressure and heart rate were measured with a pressure-transducer. The animals were deprived of food for about 18 hours before oral dosing. The Test Compound was suspended in 0.5% methylcellulose, and given orally.

DA2 receptor = target: T1, DA2 receptor (Rattus norvegicus, UniProt P61169); assay: Dopamine receptor (DA2 receptor) binding assay
T1 construct: the striatum were dissected from their brains; from tissue; host or cells: rat striatum (male rats, 150-300 g), washed homogenate pellet
Method: Test 1 Dopamine receptor (DA2 receptor) binding assay
The affinity for DA2 receptor of a Test Compound was determined following in vitro receptor binding assays.
Male rats weighing 150-300g were decapitated and the striatum were dissected from their brains. The tissue was homogenized in 30 volumes of buffer which consisted of 50 mM Tris-HCl (pH 7.4 at 25° C.), 120 mM sodium chloride, 5 mM potassium chloride, 1 mM calcium chloride, 1 mM magnesium chloride, 10 μM pargirine, and 0.1% ascorbic acid. The homogenate was centrifuged at 50,000 g for 15 minutes. The pellet was resuspended in 30 volumes of the buffer. The tissue suspension was centrifuged and suspended again in the same way.
Incubation tubes received 100 μl of [phenyl-4-^3 H]spiperone, 100 μl of the Test Compound and 0.8 ml of tissue suspension during binding assays. The concentration of [phenyl-4-^3 H]spiperone was 0.2 nM. The final tissue concentration of rat striatum was 160 μg/ml. […] The filters were counted by liquid scintillation counter.
Specific binding of the [^3 H]spiperone was determined in the presence of 1 μM butaclamol. The IC50 value of the Test Compound was calculated from the data of [^3 H]spiperone binding in the present of 10^-9 M, 10^-8 M, 10^-7 M and 10^-6 M Test Compound.

[3] = Effect on Renal Blood Flow; type: in vivo, Male beagle dogs; settings: 10 μg/kg i.v., anesthetized dogs
Method: Test 6 Effect on Renal Blood Flow
Male beagle dogs, weighing 7-12 kg were anesthetized with sodium pentobarbital (30 mg/kg i.v.). The left renal artery was exposed retroperitoneally through a flank incision, and an electromagnetic flowmeter probe were placed around the left renal artery to measure renal blood flow.

[4] = Stability (storage at accelerated conditions); type: physicochemical; settings: for Residual Amount (%): 12960 min
Method: Test Compounds were stored for 9 days at accelerated conditions as shown in the following table, and the residual amounts of them were determined by a High Performance Liquid Chromatography (HPLC).

[5] = Effect on Plasma Triglyceride Level; type: in vivo, Male SD rats; settings: dose 10 mg/kg/day, orally once a day for two weeks; STZ-induced diabetic rats
Method: Test 7 [Effect on Plasma Triglyceride Level]
Male SD rats weighing 180-230 g were made diabetic by intravenous administration of streptozotocin (STZ) at a dose of 60 mg/kg dissolved in 2 mM citrate buffer (pH 4.5). One week later, the rats were grouped by plasma triglyceride level and test compound were administered orally once a day for two weeks. Then blood samples were collected from orbital vein, and plasma triglyceride levels were measured enzymatically (Triglyceride G-Test WAKO). Control group received 0.5% methyl cellulose.

[6] = Solubility of the test compounds in various solvents; type: physicochemical; settings: for Solubility: ambient temperature
Method: The solubility of the test compounds in various solvents was measured at ambient temperature.

[7] = 70° C./75% Relative Humidity, 9 days, HPLC

T1 sequence (P61169 whole entry): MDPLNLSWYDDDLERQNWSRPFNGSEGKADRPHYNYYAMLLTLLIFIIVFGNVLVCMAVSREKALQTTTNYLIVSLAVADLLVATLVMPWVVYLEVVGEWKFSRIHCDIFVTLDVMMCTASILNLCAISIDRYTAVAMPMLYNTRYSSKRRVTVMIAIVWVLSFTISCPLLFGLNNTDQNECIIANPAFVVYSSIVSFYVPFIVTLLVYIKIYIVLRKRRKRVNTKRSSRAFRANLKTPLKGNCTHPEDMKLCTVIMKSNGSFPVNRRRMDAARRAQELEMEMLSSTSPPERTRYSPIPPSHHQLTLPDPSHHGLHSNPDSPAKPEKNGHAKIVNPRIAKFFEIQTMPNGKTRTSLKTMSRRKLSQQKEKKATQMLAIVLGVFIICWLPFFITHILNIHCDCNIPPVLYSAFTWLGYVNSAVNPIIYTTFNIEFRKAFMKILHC

**Q.** What does the source list for `O=c1[nH]c2cc(NO)ccc2c(=O)n1CCCCN1CC=C(c2ccccc2)CC1` [Compound A, 7-hydroxyamino-3-[4-(4-phenyl-1,2,3,6-tetrahydropyridin-1-yl)butyl]-1,2,3,4-tetrahydroquinazoline-2,4-dione]?
**A.** Inhibition (%) [1]: 33%; IC50 (α1-adrenoceptor): 20 nM; Maximum decrease of blood pressure (%) [2]: 34%; IC50 (DA2 receptor): 8.1 nM

**Q.** With `CS(=O)(=O)Nc1ccc2[nH]c(=O)n(CCCCN3CC=C(c4ccccc4)CC3)c(=O)c2c1` [Compound B, 3-[4-(4-phenyl-1,2,3,6-tetrahydropyridin-1-yl)butyl]-6-methylsulfonylamino-1,2,3,4-tetrahydroquinazoline-2,4-dione] as the compound, how does the IC50 (α1-adrenoceptor) read?
**A.** 38 nM

**Q.** Which “RBF (% change)” value [3] does the source give for `CCS(=O)(=O)Nc1ccc2[nH]c(=O)n(CCCCN3CC=C(c4ccccc4)CC3)c(=O)c2c1` [Compound C, 6-Ethylsulfonylamino-3-[4-(4-phenyl-1,2,3,6-tetrahydropyridin-1-yl)butyl]-1,2,3,4-tetrahydroquinazoline-2,4-dione] here?
**A.** +29 % change

**Q.** What about the remaining at 216 h ([4]; 70° C., 9 days, HPLC, read-out: Residual Amount (%)) of the same compound?
**A.** 83.4%

**Q.** What about the “Residual Amount (%)” value [4, 7] of the same compound?
**A.** 69.6%

**Q.** What about the plasma triglyceride [5] of the same compound?
**A.** 138.2 ± 47.0 mg/dL

**Q.** And the Solubility ([6]; isotonic saline)?
**A.** 9.41 µg/mL (≈ 19.5 µM)

**Q.** And the Solubility ([6]; water)?
**A.** 7.4 µg/mL (≈ 15.3 µM)

**Q.** What does the source list for `CCS(=O)(=O)Nc1ccc2[nH]c(=O)n(CCCCN3CC=C(c4ccccc4)CC3)c(=O)c2c1` [Compound D, 6-ethylsulfonylamino-3-[4-(4-phenyl-1,2,3,6=tetrahydropyridin-1-yl)butyl]-1,2,3,4=tetrahydroquinazoline-2,4-dione sulfate]?
**A.** stability (in words) [4]: better solubility and stability; Residual Amount (%) ([4]; 70° C., 9 days, HPLC): 98.2%; Residual Amount (%) [4, 7]: 99.7%; Solubility ([6]; isotonic saline): 183 µg/mL; solubility (in words) ([6]; versus the product of Example 32): better solubility; Solubility ([6]; water): 733 µg/mL
